# Key:
# [1] = test system: Epidermal growth factor receptor (Homo sapiens), P00533 [G719C]; assay: (§1) Selectivity interaction (KinomeScan (DiscoverX)) EUB0001049a EGFR; conditions: at 1 µM
# [2] = test system: Epidermal growth factor receptor (Homo sapiens), P00533 [G719S]; assay: as §1; conditions: at 1 µM
# [3] = test system: Epidermal growth factor receptor (Homo sapiens), P00533 [L858R,T790M]; assay: as §1; conditions: at 1 µM
# [4] = test system: Epidermal growth factor receptor (Homo sapiens), P00533 [L858R]; assay: as §1; conditions: at 1 µM
# [5] = test system: Epidermal growth factor receptor (Homo sapiens), P00533 [L861Q]; assay: as §1; conditions: at 1 µM
# [6] = test system: Epidermal growth factor receptor (Homo sapiens), P00533 [T790M]; assay: as §1; conditions: at 1 µM
# [7] = test system: Epidermal growth factor receptor (Homo sapiens), P00533 [UNDEFINED MUTATION]; assay: as §1; conditions: at 1 µM
# [8] = molecular target: Epidermal growth factor receptor (Homo sapiens, UniProt P00533); assay: as §1; conditions: at 1 µM
# [9] = molecular target: Proto-oncogene tyrosine-protein kinase Src (Homo sapiens, UniProt P12931); assay: Selectivity interaction (KinomeScan (DiscoverX)) EUB0000666a SRC; conditions: at 10 µM
# [10] = molecular target: Cyclin-dependent kinase 17 (Homo sapiens) (UniProt Q00537); assay: Selectivity interaction (KinomeScan (DiscoverX)) EUB0001079a CDK17; conditions: at 1 µM
# [11] = molecular target: Casein kinase I isoform delta (Homo sapiens, UniProt P48730); assay: Selectivity interaction (Kinase panel (DSF assay)) EUB0001558a CSNK1D
# [12] = molecular target: Serine/threonine-protein kinase PLK1 (Homo sapiens, UniProt P53350); assay: Selectivity interaction (Kinase panel (KiNativ target engagement assay in Jurkat cells)) EUB0001635a PLK1; format: cell-based; conditions: Selectivity number of off-targets 0.0, Selectivity number of targets 233.0, Source Knowledge https://www.sciencedirect.com/science/article/pii/S2451945619300674?via%3Dihub, at 1 µM
# [13] = molecular target: Calcium/calmodulin-dependent protein kinase type 1D (Homo sapiens) (UniProt Q8IU85); assay: Selectivity interaction (Kinase panel (DSF assay)) EUB0001559a CAMK1D
# [14] = molecular target: PAS domain-containing serine/threonine-protein kinase (Homo sapiens) (UniProt Q96RG2); assay: Selectivity interaction (Kinase screening (Nanosyn)) EUB0000604a PASK
# [15] = molecular target: Ribosomal protein S6 kinase alpha-6 (Homo sapiens, UniProt Q9UK32); assay: Selectivity interaction (Kinase screening (Nanosyn)) EUB0000604a RPS6KA6
# [16] = molecular target: T1, Serine/threonine-protein kinase Nek11 (Homo sapiens) (UniProt Q8NG66); assay: Selectivity interaction (KinomeScan (DiscoverX)) EUB0000618a NEK11; conditions: at 10 µM
# T1 sequence (whole entry): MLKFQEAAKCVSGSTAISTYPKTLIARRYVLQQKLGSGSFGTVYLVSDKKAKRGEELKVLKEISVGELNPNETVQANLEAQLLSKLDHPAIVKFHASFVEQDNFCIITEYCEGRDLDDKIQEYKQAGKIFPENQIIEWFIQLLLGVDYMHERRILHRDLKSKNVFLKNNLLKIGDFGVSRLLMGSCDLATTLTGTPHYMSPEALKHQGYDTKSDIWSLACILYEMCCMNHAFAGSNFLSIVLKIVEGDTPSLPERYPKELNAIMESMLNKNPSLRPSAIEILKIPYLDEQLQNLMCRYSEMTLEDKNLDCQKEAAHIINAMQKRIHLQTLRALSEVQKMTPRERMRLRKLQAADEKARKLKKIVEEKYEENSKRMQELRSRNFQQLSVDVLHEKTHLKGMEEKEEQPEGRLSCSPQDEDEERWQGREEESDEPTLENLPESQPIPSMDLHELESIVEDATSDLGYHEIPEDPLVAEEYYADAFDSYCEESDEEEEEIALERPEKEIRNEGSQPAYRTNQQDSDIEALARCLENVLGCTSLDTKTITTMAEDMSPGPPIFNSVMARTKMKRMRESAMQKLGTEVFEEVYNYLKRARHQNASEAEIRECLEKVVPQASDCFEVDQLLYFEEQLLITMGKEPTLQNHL
# [17] = molecular target: Insulin receptor-related protein (Homo sapiens) (UniProt P14616); assay: Selectivity interaction (KinomeScan (DiscoverX)) EUB0000655a INSRR; conditions: at 10 µM
# [18] = molecular target: Tyrosine-protein kinase Blk (Homo sapiens) (UniProt P51451); assay: Selectivity interaction (KinomeScan (DiscoverX)) EUB0000607a BLK; conditions: at 10 µM
# [19] = molecular target: DNA (cytosine-5)-methyltransferase 1 (Homo sapiens) (UniProt P26358); assay: Selectivity interaction (Methyltransferase screen (radiometric assays, panel of 8 PRMTs, 21 protein lysine methyltransferases, 3 DNA methyltransferases, and one RNA methyltransferase)) EUB0000272b DNMT1
# [20] = molecular target: Epithelial discoidin domain-containing receptor 1 (Homo sapiens) (UniProt Q08345); assay: Selectivity interaction (LanthaScreen Eu Kinase Binding Assay) EUB0001632a DDR1; conditions: at 10 µM
# [21] = molecular target: Insulin receptor (Homo sapiens, UniProt P06213); assay: Selectivity interaction (Kinase panel (Z-LYTE Assay)) EUB0001632a INSR; conditions: at 10 µM
# [22] = test system: Epidermal growth factor receptor (Homo sapiens), P00533 [UNDEFINED MUTATION]; assay: Selectivity interaction (ProQinase) EUB0000171b EGFR; conditions: at 5 µM
# [23] = molecular target: T2, Testis-specific serine/threonine-protein kinase 1 (Homo sapiens) (UniProt Q9BXA7); assay: Selectivity interaction (ProQinase) EUB0000171b TSSK1A
# T2 sequence (whole entry): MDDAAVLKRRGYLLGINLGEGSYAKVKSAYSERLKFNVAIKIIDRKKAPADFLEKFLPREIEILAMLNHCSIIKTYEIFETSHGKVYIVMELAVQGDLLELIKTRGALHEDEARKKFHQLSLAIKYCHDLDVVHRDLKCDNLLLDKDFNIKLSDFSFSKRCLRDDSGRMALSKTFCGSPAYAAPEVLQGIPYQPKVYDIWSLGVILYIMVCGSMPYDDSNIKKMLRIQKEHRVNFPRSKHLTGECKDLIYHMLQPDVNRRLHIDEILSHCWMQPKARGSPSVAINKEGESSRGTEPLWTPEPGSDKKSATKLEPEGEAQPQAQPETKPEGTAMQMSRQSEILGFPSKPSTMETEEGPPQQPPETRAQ
# Sequence of DNA (cytosine-5)-methyltransferase 1 (Homo sapiens) (P26358 whole entry, the tested form may be a part): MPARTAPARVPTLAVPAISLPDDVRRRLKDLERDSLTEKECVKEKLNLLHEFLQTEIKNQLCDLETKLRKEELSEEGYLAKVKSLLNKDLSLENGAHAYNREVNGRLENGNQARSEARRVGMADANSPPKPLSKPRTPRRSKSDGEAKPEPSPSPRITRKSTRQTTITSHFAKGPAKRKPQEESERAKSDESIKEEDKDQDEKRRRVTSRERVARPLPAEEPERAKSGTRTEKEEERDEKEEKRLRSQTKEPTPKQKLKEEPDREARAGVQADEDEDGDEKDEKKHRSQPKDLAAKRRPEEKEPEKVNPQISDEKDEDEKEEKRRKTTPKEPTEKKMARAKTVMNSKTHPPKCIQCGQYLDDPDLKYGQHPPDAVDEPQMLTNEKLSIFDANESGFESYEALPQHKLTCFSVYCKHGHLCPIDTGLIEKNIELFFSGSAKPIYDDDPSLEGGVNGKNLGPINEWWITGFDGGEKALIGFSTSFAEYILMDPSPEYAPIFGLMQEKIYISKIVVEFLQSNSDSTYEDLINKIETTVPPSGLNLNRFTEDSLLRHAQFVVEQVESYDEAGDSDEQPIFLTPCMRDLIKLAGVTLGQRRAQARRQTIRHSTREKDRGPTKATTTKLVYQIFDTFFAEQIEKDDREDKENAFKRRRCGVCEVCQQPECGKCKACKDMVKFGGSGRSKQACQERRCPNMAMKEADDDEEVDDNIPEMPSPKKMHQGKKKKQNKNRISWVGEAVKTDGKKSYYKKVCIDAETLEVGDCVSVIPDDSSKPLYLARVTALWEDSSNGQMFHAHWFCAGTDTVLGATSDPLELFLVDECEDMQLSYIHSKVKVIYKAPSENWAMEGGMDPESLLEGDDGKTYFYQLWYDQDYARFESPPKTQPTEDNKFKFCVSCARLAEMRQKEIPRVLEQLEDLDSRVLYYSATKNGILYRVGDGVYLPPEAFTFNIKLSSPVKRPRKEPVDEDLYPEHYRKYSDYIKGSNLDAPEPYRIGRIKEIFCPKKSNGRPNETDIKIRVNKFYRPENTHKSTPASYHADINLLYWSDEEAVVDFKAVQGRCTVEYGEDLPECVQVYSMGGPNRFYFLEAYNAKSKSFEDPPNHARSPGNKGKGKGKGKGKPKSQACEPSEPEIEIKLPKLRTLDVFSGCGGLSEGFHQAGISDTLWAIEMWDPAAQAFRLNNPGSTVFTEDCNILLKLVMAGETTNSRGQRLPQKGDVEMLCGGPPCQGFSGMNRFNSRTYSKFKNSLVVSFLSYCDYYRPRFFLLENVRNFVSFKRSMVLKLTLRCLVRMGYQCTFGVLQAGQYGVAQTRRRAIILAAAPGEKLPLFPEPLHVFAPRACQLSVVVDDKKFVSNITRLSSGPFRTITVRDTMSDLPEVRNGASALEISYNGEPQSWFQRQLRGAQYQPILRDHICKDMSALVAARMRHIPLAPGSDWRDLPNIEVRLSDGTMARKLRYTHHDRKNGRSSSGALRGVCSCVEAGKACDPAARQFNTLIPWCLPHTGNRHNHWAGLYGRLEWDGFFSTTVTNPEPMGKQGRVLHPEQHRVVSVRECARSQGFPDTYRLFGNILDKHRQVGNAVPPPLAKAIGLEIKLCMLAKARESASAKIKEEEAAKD
# Sequence of Epidermal growth factor receptor (Homo sapiens), P00533 [UNDEFINED MUTATION] (P00533 whole entry, looked up, change not shown): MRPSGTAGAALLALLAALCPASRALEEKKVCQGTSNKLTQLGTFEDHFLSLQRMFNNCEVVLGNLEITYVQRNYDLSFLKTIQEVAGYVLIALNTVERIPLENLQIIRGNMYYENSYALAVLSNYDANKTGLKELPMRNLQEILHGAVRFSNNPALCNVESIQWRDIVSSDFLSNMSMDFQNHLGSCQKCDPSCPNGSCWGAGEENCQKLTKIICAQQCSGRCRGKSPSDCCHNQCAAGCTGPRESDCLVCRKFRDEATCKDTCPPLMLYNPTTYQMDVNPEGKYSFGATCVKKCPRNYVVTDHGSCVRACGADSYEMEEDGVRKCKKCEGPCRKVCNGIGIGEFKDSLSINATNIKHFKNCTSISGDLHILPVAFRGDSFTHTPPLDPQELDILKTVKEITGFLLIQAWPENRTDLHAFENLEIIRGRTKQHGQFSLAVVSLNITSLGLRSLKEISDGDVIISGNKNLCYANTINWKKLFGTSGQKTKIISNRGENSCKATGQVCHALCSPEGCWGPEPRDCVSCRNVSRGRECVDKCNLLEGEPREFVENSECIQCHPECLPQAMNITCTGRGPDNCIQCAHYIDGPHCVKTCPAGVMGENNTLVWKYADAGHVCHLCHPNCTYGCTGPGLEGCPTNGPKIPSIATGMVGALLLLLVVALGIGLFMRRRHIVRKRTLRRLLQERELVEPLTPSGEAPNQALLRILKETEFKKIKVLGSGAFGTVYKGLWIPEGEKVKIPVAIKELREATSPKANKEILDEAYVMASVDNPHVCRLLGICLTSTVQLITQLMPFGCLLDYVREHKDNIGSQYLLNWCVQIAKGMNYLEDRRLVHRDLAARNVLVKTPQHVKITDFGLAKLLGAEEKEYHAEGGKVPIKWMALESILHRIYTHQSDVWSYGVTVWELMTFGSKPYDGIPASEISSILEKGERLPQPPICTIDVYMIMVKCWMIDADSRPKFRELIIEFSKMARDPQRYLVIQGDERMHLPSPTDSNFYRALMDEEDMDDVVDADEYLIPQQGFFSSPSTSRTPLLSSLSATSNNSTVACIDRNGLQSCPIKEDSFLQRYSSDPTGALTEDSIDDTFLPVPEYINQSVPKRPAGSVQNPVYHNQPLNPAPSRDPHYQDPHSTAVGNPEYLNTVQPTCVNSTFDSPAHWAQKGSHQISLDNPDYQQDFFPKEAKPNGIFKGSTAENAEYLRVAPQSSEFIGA
# Sequence of Casein kinase I isoform delta (P48730 whole entry, looked up, canonical isoform): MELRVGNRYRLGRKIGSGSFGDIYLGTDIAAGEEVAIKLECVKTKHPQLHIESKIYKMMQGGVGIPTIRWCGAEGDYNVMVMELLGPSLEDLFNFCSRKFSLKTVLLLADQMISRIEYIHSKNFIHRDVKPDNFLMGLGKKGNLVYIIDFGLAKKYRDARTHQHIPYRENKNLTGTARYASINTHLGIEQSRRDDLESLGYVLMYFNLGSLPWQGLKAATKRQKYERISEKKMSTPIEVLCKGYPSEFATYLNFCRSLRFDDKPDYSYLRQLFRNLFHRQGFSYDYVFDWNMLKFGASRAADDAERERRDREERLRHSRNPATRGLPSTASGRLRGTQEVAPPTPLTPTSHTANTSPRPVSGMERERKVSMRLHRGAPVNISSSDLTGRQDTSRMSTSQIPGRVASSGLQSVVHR
# Sequence of Serine/threonine-protein kinase PLK1 (P53350 whole entry): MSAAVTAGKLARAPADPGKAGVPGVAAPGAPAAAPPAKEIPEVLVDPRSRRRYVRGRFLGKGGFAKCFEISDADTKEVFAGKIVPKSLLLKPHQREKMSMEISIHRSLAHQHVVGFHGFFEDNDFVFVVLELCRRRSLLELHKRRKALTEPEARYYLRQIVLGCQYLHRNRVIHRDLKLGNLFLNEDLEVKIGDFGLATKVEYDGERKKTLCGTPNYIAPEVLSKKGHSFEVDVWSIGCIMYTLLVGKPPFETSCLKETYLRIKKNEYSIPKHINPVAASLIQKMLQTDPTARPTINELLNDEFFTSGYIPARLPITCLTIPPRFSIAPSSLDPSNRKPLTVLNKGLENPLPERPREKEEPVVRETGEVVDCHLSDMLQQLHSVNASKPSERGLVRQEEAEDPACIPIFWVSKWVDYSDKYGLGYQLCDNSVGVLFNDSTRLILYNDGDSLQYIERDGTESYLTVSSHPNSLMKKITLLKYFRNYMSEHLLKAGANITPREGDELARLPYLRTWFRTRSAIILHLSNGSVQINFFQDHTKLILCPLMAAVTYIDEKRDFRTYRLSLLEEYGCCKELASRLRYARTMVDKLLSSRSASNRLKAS
# Sequence of Calcium/calmodulin-dependent protein kinase type 1D (Homo sapiens) (Q8IU85 whole entry, looked up, the tested form may be a part): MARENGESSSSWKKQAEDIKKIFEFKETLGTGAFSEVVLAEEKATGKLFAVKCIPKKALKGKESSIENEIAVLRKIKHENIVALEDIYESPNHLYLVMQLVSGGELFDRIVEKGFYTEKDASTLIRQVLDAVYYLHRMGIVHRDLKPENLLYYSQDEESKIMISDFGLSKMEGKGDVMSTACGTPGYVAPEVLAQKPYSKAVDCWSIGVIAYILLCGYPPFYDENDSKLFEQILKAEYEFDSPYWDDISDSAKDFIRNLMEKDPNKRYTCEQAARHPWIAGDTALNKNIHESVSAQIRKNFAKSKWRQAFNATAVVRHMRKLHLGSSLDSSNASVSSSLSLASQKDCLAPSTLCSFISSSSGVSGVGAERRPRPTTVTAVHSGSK
# Sequence of Ribosomal protein S6 kinase alpha-6 (Q9UK32 whole entry): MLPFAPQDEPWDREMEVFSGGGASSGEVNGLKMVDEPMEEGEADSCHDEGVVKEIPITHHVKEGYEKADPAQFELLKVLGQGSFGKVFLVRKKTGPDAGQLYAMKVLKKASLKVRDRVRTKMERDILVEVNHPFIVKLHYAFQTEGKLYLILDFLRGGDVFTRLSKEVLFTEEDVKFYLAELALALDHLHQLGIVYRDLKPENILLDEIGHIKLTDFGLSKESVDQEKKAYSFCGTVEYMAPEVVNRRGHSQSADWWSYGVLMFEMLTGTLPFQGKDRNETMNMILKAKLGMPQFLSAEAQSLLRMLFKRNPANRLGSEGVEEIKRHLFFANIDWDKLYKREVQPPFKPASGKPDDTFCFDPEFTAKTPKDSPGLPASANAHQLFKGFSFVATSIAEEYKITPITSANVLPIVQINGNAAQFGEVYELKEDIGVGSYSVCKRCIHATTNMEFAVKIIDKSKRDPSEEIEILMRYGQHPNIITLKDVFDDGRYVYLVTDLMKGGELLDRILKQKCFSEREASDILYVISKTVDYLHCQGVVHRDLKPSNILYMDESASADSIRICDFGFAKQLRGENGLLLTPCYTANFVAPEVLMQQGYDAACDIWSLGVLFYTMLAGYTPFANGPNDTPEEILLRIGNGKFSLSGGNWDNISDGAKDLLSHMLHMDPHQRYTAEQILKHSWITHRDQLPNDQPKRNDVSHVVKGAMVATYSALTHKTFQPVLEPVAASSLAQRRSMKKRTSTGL
compound,measurement,setting,value
COc1cc(Nc2nc(C)cc(-c3cnn4nc(OC)ccc34)n2)cc(C(F)(F)F)c1,% of control,[1],100%
same,% of control,[2],94%
same,% of control,[3],68%
same,% of control,[4],89%
same,% of control,[5],100%
same,% of control,[6],93%
same,% of control,[7],100%
same,% of control,[8],95%
O=C(NOC[C@H](O)CO)c1ccc(F)c(F)c1Nc1ccc(I)cc1F,% of control,[9],69%
Nc1cnc(N2CCc3cc(S(=O)(=O)Nc4c(F)cc(Cl)cc4F)cc(N4CCCC4=O)c32)nc1 [TP-020n],% of control,[10],100%
CC(C)(O)[C@H](F)CN1Cc2cc(NC(=O)c3cnn4cccnc34)c(N3CCOCC3)cc2C1=O,dTM,[11],1.9 K
C=CC(=O)Nc1ccc(C(=O)Nc2[nH]nc3c2CN(C(=O)N[C@H](CN(C)C)c2ccccc2)C3(C)C)cc1,% of engagement,[12],5%
CN(C(=O)c1cnn2cccnc12)c1cc2c(cc1N1CCOCC1)C(=O)N(C[C@@H](F)C(C)(C)O)C2,dTM,[13],-0.7 K
Cc1cnc(Nc2ccc(F)cc2Cl)nc1-c1c[nH]c(C(=O)N[C@H](CO)c2cccc(Cl)c2)c1,% of inhibition,[14],19%
same,% of inhibition,[15],11%
O[C@H]1CC[C@H](Nc2ncc3nc(Nc4c(F)cc(F)cc4F)n([C@H]4CCOC4)c3n2)CC1,% of control,[16],90%
CN(C)CCOc1ccc(-c2nc(-c3ccncc3)c(-c3ccc4c(c3)CC/C4=N\O)[nH]2)cc1,% of control,[17],100%
CNC(=O)Nc1ccc(-c2nc(N3CC4CCC(C3)O4)c3cnn(C4CCC5(CC4)OCCO5)c3n2)cc1,% of control,[18],96%
Cc1cc(C)cc([C@H]2c3cc(C)ccc3NC(=O)CN2C(=O)c2ccc(Br)s2)c1,% of activity,[19]; at 1 µM,98.7%
same,% of activity,[19]; at 10 µM,104%
Cn1cc(-n2cnc3c(NCc4nc5cc(Cl)c(Cl)cc5[nH]4)nc(N4CCOCC4)nc32)cn1,% of inhibition,[20],0.322%
same,% of control,[21],-1.61%
C=CC(=O)Nc1cccc(C(=O)Nc2ccc(Nc3cc(-c4[nH]c(SC)nc4C)ccn3)cc2)c1,% of control,[22],101%
same,% of control,[23]; at 1 µM,76%
same,% of control,[23]; at 5 µM,72%

# — ChEMBL document CHEMBL5465560, “Selectivity Literature for EUbOPEN Chemogenomic Library” (2024)
